The results in this text go back to US9747412B2, “Method for identifying activation of transferases” (HVIVO SERVICES LIMITED, priority 2010, dated 2017).

For the experiment, the system named is epithelial cell line MCF10A. Briefly: Global Kinase Activity Profiling (GKAP) of lysates of cells treated with EGF and kinase inhibitors. Format: cell-based, human. The settings on record: for Decrease in the number of EGF-dependent kinase activities detected: MCF10A cells pre-treated 1 h with inhibitor (5 μM LY294002 or 10 μM U0126) before 100 ng/ml EGF for 10 min.

Regarding `O=c1cc(N2CCOCC2)oc2c(-c3ccccc3)cccc12` [LY92004], the “Decrease in the number of EGF-dependent kinase activities detected” value is “about 30%”. Same read-out and setting: in the case of `N#CC(=C(/N)Sc1ccccc1N)/C(C#N)=C(\N)Sc1ccccc1N` [U0126] it was “about 30%”.

In the case of “EGF: recombinant human EGF (Peprotech AF-100-15), growth factor activating kinase pathways downstream of its receptor (NSDSECPLSHDGYCLHDGVCMYIEALDKYACNCVVGYIGERCQYRDLKWWELR; UniProt P01133 971-1023, looked up)”, the “Number of kinase reactions that increased as a function of treatment” value (treatment with EGF (summary statement)) is recorded as > 300.
